Reference: the supplement of paper PMC13380429
Structures can show the parent of a compound that is named as a salt.

Legend:
[1] = system: A549-ACE2; experiment: drug-induced phospholipidosis relative to tamoxifen; higher = more phospholipidosis
[2] = system: A549-ACE2 infected with SARS-CoV-2; experiment: cell count relative to DMSO; higher = less toxic; details: 24 h
[3] = system: Caco-2; experiment: drug sensitivity score (DSS) for viability; higher = more toxic; extreme values may be limits of the assay; details: 72 h
[4] = system: U2OS; experiment: as above; details: 72 h
[5] = system: Vero E6; experiment: as above; details: 72 h
[6] = system: Calu-3; experiment: as above; details: 72 h
[7] = system: HepG2; experiment: as above; details: 72 h
[8] = system: Vero E6; experiment: relative viability EC50 (midpoint between 100% and the lowest measured viability); higher = less toxic; details: 72 h
[9] = system: Calu-3; experiment: as above; details: 72 h
[10] = system: HepG2; experiment: as above; details: 72 h
[11] = system: A549-ACE2 infected with SARS-CoV-2; experiment: morphology score (similarity to uninfected cells); higher = more like uninfected cells; details: 24 h
[12] = system: A549-ACE2; experiment: phospholipidosis EC50; higher = less potent phospholipidosis inducer
[13] = system: A549-ACE2 infected with SARS-CoV-2; experiment: SARS-CoV-2 infection rate relative to DMSO; higher = more infection; details: 24 h
[14] = system: Caco-2; experiment: cell viability relative to DMSO; higher = less toxic; details: 72 h
[15] = system: U2OS; experiment: as above; details: 72 h
[16] = system: Vero E6; experiment: as above; details: 72 h
[17] = system: Calu-3; experiment: as above; details: 72 h
[18] = system: HepG2; experiment: as above; details: 72 h
[19] = system: Caco-2; experiment: relative viability EC50 (midpoint between 100% and the lowest measured viability); higher = less toxic; details: 72 h
[20] = system: U2OS; experiment: as above; details: 72 h

O=C(Nc1ncc(SCCN2CCCC2)s1)[C@]1(c2ccc(S(=O)(=O)C3CC3)cc2)C[C@H]1C1CCCCC1
drug-induced phospholipidosis [%], [1]
Details	0.3 µM	0.833333 µM	3.33333 µM	6.66667 µM	10 µM	30 µM
24 h	14.6	32.7	73.1	104	117	197
48 h	10.1	21.2	80.9	105	132	–
72 h	11.7	19.3	75.5	114	138	–

Details	SARS-CoV-2 infection rate [%]	cell count [%]	cell viability [%]	morphology score	phospholipidosis EC50 [µM]
[2], 0.3 µM	–	101	–	–	–
[2], 3 µM	–	115	–	–	–
[2], 10 µM	–	118	–	–	–
[2], 30 µM	–	56	–	–	–
[11], 0.3 µM	–	–	–	0.2	–
[11], 3 µM	–	–	–	0.84	–
[11], 10 µM	–	–	–	0.6	–
[11], 30 µM	–	–	–	-0.07	–
[12], 24 h	–	–	–	–	6.5
[12], 48 h	–	–	–	–	5.12
[12], 72 h	–	–	–	–	5.4
[13], 0.3 µM	94	–	–	–	–
[13], 3 µM	27	–	–	–	–
[13], 10 µM	8	–	–	–	–
[13], 30 µM	44	–	–	–	–
[14], 1 nM	–	–	101	–	–
[14], 10 nM	–	–	98.9	–	–
[14], 100 nM	–	–	98	–	–
[14], 1000 nM	–	–	102	–	–
[14], 10000 nM	–	–	69	–	–
[15], 1 nM	–	–	99.4	–	–
[15], 10 nM	–	–	105	–	–
[15], 100 nM	–	–	104	–	–
[15], 1000 nM	–	–	102	–	–
[15], 10000 nM	–	–	74.9	–	–
[16], 1 nM	–	–	96.3	–	–
[16], 10 nM	–	–	94.6	–	–
[16], 100 nM	–	–	97.2	–	–
[16], 1000 nM	–	–	90.5	–	–
[16], 10000 nM	–	–	95.4	–	–
[17], 1 nM	–	–	110	–	–
[17], 10 nM	–	–	93.8	–	–
[17], 100 nM	–	–	96.4	–	–
[17], 1000 nM	–	–	103	–	–
[17], 10000 nM	–	–	14	–	–
[18], 1 nM	–	–	104	–	–
[18], 10 nM	–	–	99.2	–	–
[18], 100 nM	–	–	98.6	–	–
[18], 1000 nM	–	–	90.2	–	–
[18], 10000 nM	–	–	44.8	–	–

Details	drug sensitivity score	relative viability EC50 [µM]
[3]	1.3	–
[4]	0.8	–
[5]	0	–
[6]	4.6	–
[7]	4.6	–
[8]	–	> 10
[9]	–	3.34
[10]	–	1.84

CC/C(=C(\c1ccc(O)cc1)c1ccc(OCCNC)cc1)c1ccccc1 [Endoxifen HCl]
drug-induced phospholipidosis [%], [1]
Details	0.3 µM	0.833333 µM	3.33333 µM	6.66667 µM	10 µM
24 h	5.89	13.1	65.7	78.7	78.6
48 h	5.61	7.92	62.4	83.1	77.4
72 h	8.35	4.33	55.2	86.8	88.4

Details	SARS-CoV-2 infection rate [%]	cell count [%]	cell viability [%]	morphology score	phospholipidosis EC50 [µM]
[2], 0.3 µM	–	98	–	–	–
[2], 3 µM	–	123	–	–	–
[2], 10 µM	–	118	–	–	–
[2], 30 µM	–	25	–	–	–
[11], 0.3 µM	–	–	–	0.02	–
[11], 3 µM	–	–	–	0.87	–
[11], 10 µM	–	–	–	0.84	–
[11], 30 µM	–	–	–	-0.2	–
[12], 24 h	–	–	–	–	1.9
[12], 48 h	–	–	–	–	3
[12], 72 h	–	–	–	–	3.1
[13], 0.3 µM	100	–	–	–	–
[13], 3 µM	30	–	–	–	–
[13], 10 µM	8	–	–	–	–
[13], 30 µM	86	–	–	–	–
[14], 1 nM	–	–	104	–	–
[14], 10 nM	–	–	115	–	–
[14], 100 nM	–	–	106	–	–
[14], 1000 nM	–	–	105	–	–
[14], 10000 nM	–	–	53.6	–	–
[16], 1 nM	–	–	103	–	–
[16], 10 nM	–	–	105	–	–
[16], 100 nM	–	–	103	–	–
[16], 1000 nM	–	–	99.9	–	–
[16], 10000 nM	–	–	91.1	–	–
[17], 1 nM	–	–	102	–	–
[17], 10 nM	–	–	94	–	–
[17], 100 nM	–	–	96.6	–	–
[17], 1000 nM	–	–	100	–	–
[17], 10000 nM	–	–	5.1	–	–
[18], 1 nM	–	–	110	–	–
[18], 10 nM	–	–	95.4	–	–
[18], 100 nM	–	–	103	–	–
[18], 1000 nM	–	–	105	–	–
[18], 10000 nM	–	–	36.5	–	–

Details	drug sensitivity score	relative viability EC50 [µM]
[3]	2.1	–
[5]	0	–
[6]	5.3	–
[7]	3.1	–
[8]	–	> 10
[9]	–	3.19
[10]	–	3.53

Oc1ccc2c3c1O[C@H]1c4c(c5ccccc5n4Cc4ccccc4)C[C@@]4(O)[C@@H](C2)N(CC2CC2)CC[C@]314 [N-benzylnaltrindole]
drug-induced phospholipidosis [%], [1]
Details	0.3 µM	0.833333 µM	3.33333 µM	6.66667 µM	10 µM	30 µM
24 h	4.31	4.24	48.7	70.1	59	26.2
48 h	5.61	4.16	44.9	83.7	102	–
72 h	4.1	4.23	35.4	81.8	111	–

Details	SARS-CoV-2 infection rate [%]	cell count [%]	cell viability [%]	morphology score	phospholipidosis EC50 [µM]
[2], 0.1 µM	–	100	–	–	–
[2], 0.3 µM	–	101	–	–	–
[2], 1 µM	–	104	–	–	–
[2], 3 µM	–	108	–	–	–
[11], 0.1 µM	–	–	–	0.1	–
[11], 0.3 µM	–	–	–	0.1	–
[11], 1 µM	–	–	–	0.24	–
[11], 3 µM	–	–	–	0.47	–
[12], 24 h	–	–	–	–	2.62
[12], 48 h	–	–	–	–	4.61
[12], 72 h	–	–	–	–	6.76
[13], 0.1 µM	96	–	–	–	–
[13], 0.3 µM	94	–	–	–	–
[13], 1 µM	90	–	–	–	–
[13], 3 µM	69	–	–	–	–
[14], 1 nM	–	–	88.7	–	–
[14], 10 nM	–	–	99.7	–	–
[14], 100 nM	–	–	88.5	–	–
[14], 1000 nM	–	–	99	–	–
[14], 10000 nM	–	–	86.9	–	–
[15], 1 nM	–	–	94.9	–	–
[15], 10 nM	–	–	102	–	–
[15], 100 nM	–	–	95.9	–	–
[15], 1000 nM	–	–	102	–	–
[15], 10000 nM	–	–	89.1	–	–
[16], 1 nM	–	–	100	–	–
[16], 10 nM	–	–	96	–	–
[16], 100 nM	–	–	95.1	–	–
[16], 1000 nM	–	–	96.2	–	–
[16], 10000 nM	–	–	70.1	–	–
[17], 1 nM	–	–	96.9	–	–
[17], 10 nM	–	–	99.8	–	–
[17], 100 nM	–	–	106	–	–
[17], 1000 nM	–	–	100	–	–
[17], 10000 nM	–	–	38.9	–	–
[18], 1 nM	–	–	102	–	–
[18], 10 nM	–	–	98.9	–	–
[18], 100 nM	–	–	103	–	–
[18], 1000 nM	–	–	100	–	–
[18], 10000 nM	–	–	54.8	–	–

Details	drug sensitivity score	relative viability EC50 [µM]
[3]	0	–
[4]	0	–
[5]	1.9	–
[6]	3.3	–
[7]	2.3	–
[9]	–	3.19
[19]	–	> 10
[20]	–	> 10

CNCc1ccc(-c2cc(-c3nc(-c4ccc(S(=O)(=O)C(C)C)cc4)cnc3N)on2)cc1 [VE-822]
drug-induced phospholipidosis [%], [1]
Details	0.3 µM	0.833333 µM	3.33333 µM	6.66667 µM	10 µM	30 µM
24 h	13.9	27.3	86.2	113	119	42.3
48 h	14.2	28	89.1	124	148	62.7
72 h	16.7	20.1	102	143	163	63.3

Details	SARS-CoV-2 infection rate [%]	cell count [%]	cell viability [%]	morphology score	phospholipidosis EC50 [µM]
[2], 0.1 µM	–	107	–	–	–
[2], 0.3 µM	–	110	–	–	–
[2], 1 µM	–	128	–	–	–
[2], 3 µM	–	118	–	–	–
[11], 0.1 µM	–	–	–	0.32	–
[11], 0.3 µM	–	–	–	0.31	–
[11], 1 µM	–	–	–	0.57	–
[11], 3 µM	–	–	–	0.55	–
[12], 24 h	–	–	–	–	1.16
[12], 48 h	–	–	–	–	3.02
[12], 72 h	–	–	–	–	2.97
[13], 0.1 µM	89	–	–	–	–
[13], 0.3 µM	89	–	–	–	–
[13], 1 µM	51	–	–	–	–
[13], 3 µM	25	–	–	–	–
[14], 1 nM	–	–	104	–	–
[14], 10 nM	–	–	103	–	–
[14], 100 nM	–	–	103	–	–
[14], 1000 nM	–	–	92.8	–	–
[14], 10000 nM	–	–	49.3	–	–
[15], 1 nM	–	–	101	–	–
[15], 10 nM	–	–	104	–	–
[15], 100 nM	–	–	96	–	–
[15], 1000 nM	–	–	89.9	–	–
[15], 10000 nM	–	–	67.4	–	–
[16], 1 nM	–	–	94.8	–	–
[16], 10 nM	–	–	95.7	–	–
[16], 100 nM	–	–	97.2	–	–
[16], 1000 nM	–	–	85.1	–	–
[16], 10000 nM	–	–	2.1	–	–
[17], 1 nM	–	–	96.5	–	–
[17], 10 nM	–	–	93.2	–	–
[17], 100 nM	–	–	93.4	–	–
[17], 1000 nM	–	–	106	–	–
[17], 10000 nM	–	–	90	–	–
[18], 1 nM	–	–	111	–	–
[18], 10 nM	–	–	99	–	–
[18], 100 nM	–	–	94	–	–
[18], 1000 nM	–	–	53.3	–	–
[18], 10000 nM	–	–	19.1	–	–

Details	drug sensitivity score	relative viability EC50 [µM]
[3]	3.9	–
[4]	2.6	–
[5]	7.9	–
[6]	0	–
[7]	10.1	–
[8]	–	1.97
[9]	–	> 10
[10]	–	0.779
[19]	–	2.04
